Values joined by “and” are separate entries in the source; they are usually repeats but may differ in a detail not shown here. Equal entries are not always repeated. Where two headings read alike, the source gives them in different places.
Tests used:
[1] = tested on: HepG2 cells; assay: MTT antiproliferative assay on HepG2; format: cell-based; settings: mean ± S.D. (n = 3), read-out: Cytotoxicity in IC50, HepG2
Experimental: (§1) The antiproliferative activity of the thiophene compounds 3a–g, 4a–c, 6a, and 7a–d was evaluated by an in vitro MTT colorimetric assay on two oncogenic cell lines: liver (HepG2) and prostate (PC-3).
(§2) All cell lines (HepG2, PC-3, and nontumorigenic WI38) were supplied from VACSERA (Cairo, Egypt), cultured in DMEM (Invitrogen/Life Technologies, Waltham, MA, USA) at a density of 1.2–1.8 × 10,000 cells/well in a volume of 100 µL of the growth medium, and then incubated for 24 h, and an MTT assay was done as reported by.

[2] = tested on: PC-3 cells; assay: MTT antiproliferative assay on PC-3; format: cell-based; settings: mean ± S.D. (n = 3), read-out: Cytotoxicity in IC50, PC-3
Experimental: as §1, §2

[3] = molecular target: T1, VEGFR-2 (Homo sapiens, UniProt P35968); assay: VEGFR2 (KDR) kinase assay kit; format: biochemical; parameters: purchased BPS Bioscience 40325; settings: read-out: VEGFR-2 kinase inhibitory activity IC50
T1 sequence (P35968 20-1356): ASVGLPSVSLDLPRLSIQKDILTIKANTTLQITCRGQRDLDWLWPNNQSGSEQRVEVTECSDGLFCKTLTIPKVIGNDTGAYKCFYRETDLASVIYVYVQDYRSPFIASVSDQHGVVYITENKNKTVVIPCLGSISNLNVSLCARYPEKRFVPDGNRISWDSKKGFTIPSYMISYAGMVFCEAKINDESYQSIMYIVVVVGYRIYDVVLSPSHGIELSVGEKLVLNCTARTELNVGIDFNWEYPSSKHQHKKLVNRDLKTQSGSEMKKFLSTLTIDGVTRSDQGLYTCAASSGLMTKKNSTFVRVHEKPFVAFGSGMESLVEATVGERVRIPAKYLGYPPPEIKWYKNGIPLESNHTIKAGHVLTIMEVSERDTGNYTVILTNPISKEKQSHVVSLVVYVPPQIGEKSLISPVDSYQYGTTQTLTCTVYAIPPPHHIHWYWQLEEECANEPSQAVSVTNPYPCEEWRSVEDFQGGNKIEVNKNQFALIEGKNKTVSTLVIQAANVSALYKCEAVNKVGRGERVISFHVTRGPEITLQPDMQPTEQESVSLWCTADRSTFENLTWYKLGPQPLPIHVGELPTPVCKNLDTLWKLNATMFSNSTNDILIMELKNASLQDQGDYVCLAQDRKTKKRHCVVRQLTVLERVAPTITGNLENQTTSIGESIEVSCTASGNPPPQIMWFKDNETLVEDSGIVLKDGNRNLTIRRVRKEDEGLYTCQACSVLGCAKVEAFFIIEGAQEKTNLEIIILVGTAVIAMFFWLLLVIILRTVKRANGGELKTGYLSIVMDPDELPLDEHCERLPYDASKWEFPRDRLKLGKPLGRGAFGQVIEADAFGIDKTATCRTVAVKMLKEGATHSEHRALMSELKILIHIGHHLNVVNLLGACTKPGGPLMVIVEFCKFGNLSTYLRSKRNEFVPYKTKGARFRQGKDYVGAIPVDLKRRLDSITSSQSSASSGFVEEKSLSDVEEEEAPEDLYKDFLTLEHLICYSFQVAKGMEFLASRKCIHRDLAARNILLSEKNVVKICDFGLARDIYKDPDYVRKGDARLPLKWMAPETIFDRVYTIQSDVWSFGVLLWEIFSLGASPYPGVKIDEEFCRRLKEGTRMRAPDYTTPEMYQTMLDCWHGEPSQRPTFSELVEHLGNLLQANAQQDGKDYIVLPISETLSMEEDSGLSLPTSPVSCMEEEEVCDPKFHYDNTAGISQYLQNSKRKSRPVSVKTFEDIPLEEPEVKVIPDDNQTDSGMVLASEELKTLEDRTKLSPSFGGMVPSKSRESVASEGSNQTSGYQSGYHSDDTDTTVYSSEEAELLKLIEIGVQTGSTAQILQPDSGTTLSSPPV
Description: (§5) The outcomes were expressed as IC50 values (mean standard deviation) calculated from the dose–response curves and their linear regression equations.

[4] = tested on: WI38 cells; assay: MTT assay on normal nononcogenic cell line WI38; format: cell-based; settings: calculated by dividing the IC50 of WI38/PC-3, SI > 2 is considered safe
Experimental: (§3) The aforementioned results illustrate that compounds 3b and 4c are the most promising cytotoxic agents on both cell lines and will be subjected to a thorough mechanistic study to understand their anticancer activity. However, before doing this, their selective toxicity and, thus, their safety were evaluated by measuring the IC50 values against the normal nononcogenic cell line (Wl38) by an MTT assay as listed in Table 1. […] Compound 3b gave SI of 6, and compound 4c gave SI = 12 showing better selectivity toward cancer cells than doxorubicin with SI = 5.
as §2

[5] = MTT assay on normal nononcogenic cell line WI38; format: cell-based; settings: human, WI38 cells (normal nononcogenic cell line); MTT assay; noncancerous cell line; mean ± S.D. (n = 3); read-out: Cytotoxicity in IC50, WI38
Experimental: as §3, §2

[6] = tested on: HepG2 cells; assay: Annexin V-FITC/PI apoptosis detection; format: cell-based; settings: HepG2, 48 h
Experimental: Annexin V/PI staining with flow cytometric analysis was adapted to measure early and late apoptotic cells and necrotic cells as presented in Table 3 and Figure 6.
(§4) Analyzing the DNA content in the cell cycle phases by flow cytometry was conducted using FACSCalibur (Becton Dickinson, Franklin Lakes, NJ, USA) following the manufacturer’s manual. The cell cycle analysis procedures were as reported by on HepG2 cells after their treatment with the most promising derivatives for 48 h. Further assessment of the proapoptotic effect was determined by the Annexin V-FITC/PI apoptosis detection kit (Catalog # K101-25, BD Biosciences, San Diego, CA, USA).

[7] = molecular target: T2, AKT-1 (Homo sapiens, UniProt P31749); assay: Phospho-AKT1 (Ser473) cell-based phosphorylation ELISA in HepG2 cells; parameters: endogenous in cells; host or cells: HepG2
T2 sequence (P31749 whole entry): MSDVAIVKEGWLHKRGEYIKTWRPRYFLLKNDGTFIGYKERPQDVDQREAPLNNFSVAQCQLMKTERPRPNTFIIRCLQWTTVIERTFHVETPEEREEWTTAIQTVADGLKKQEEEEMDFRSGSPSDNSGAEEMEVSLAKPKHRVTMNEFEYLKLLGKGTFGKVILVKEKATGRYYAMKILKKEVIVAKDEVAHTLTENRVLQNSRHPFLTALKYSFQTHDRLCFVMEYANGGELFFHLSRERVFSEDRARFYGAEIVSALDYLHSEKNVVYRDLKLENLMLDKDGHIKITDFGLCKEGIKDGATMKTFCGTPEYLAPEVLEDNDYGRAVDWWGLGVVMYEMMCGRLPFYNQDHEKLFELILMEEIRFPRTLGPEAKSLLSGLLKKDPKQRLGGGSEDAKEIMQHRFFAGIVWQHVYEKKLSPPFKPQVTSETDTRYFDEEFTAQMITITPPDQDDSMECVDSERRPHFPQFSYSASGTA
Experimental: To investigate the success of the design strategy developed in this work, the effect of the promising candidates 3b and 4c was assessed on AKT-1, a crucial protein, by determining their phosphorylation inhibition rate in HepG2 cells and measuring their biochemical kinase inhibitory activity.
VEGFR-2 phosphorylation was assayed using VEGFR2 Antibody (Phospho-Tyr951) (OAEC00085, AVIVA SYSTEM BIOLOGY), while Akt-1 was assayed by Mouse/Human/Rat Phospho-AKT1 (Ser473) (Cell-Based Phosphorylation ELISA) ELISA Kit-LS-F1447 (LSBio) according to manufacturer’s instructions.

[8] = tested on: caspase-3; assay: Active caspase-3 ELISA in HepG2 cells; format: cell-based, human
Experimental: Apoptosis is known to be carried out through three different pathways: intrinsic, extrinsic, and granzyme pathways. One of the controlling proteins in apoptosis is the cysteine protease named caspase with the chief executer caspase 3 [46, 47]. Accordingly, assessing the effect of 3b and 4c on the active caspase-3 level was done in HepG2 cells taking doxorubicin as the reference drug.
The colorimetric ELISA assay for active caspase-3 detection was carried out utilizing Invitrogen™ Caspase-3 (Cleaved) Human ELISA-Kit (KHO1091, CA, USA) according to the manufacturer’s procedures. ROBONIK P2000 ELISA reader was used at 450 nm, and the standard curve was obtained by plotting the mean absorbance of each standard concentration against human caspase-3 concentrations.

[9] = molecular target: T2, AKT-1; assay: Akt kinase activity assay kit on cell lysate; format: biochemical; settings: LY2780301 as reference
Description: as §5

[10] = molecular target: T1, VEGFR-2; assay: VEGFR-2 phosphorylation cell-based ELISA in HepG2 cells; settings: compounds at their formerly determined IC50
Experimental: VEGFR-2 phosphorylation was assayed using VEGFR2 Antibody (Phospho-Tyr951) (OAEC00085, AVIVA SYSTEM BIOLOGY) [53], while Akt-1 was assayed by Mouse/Human/Rat Phospho-AKT1 (Ser473) (Cell-Based Phosphorylation ELISA) ELISA Kit-LS-F1447 (LSBio) according to manufacturer’s instructions [54].

[11] = tested on: HepG2 cells; assay: Flow cytometric cell cycle analysis; format: cell-based; settings: HepG2, 48 h, at IC50
Experimental: AKT-1 is known for its downstream activation of several proteins involved in cell proliferation and apoptosis evasion. In addition, it is reported to be involved in G1–S checkpoint transition and proliferation.
as §4

SMILES	melting point [°C]	IC50 ([1]; Homo sapiens, HepG2, MTT assay) [µM]	IC50 ([2]; Homo sapiens, PC-3, MTT assay) [µM]	other results
CN1CCc2sc3nc(-c4ccccc4)[nH]c(=O)c3c21 [3a, 5-Methyl-2-phenyl-3,5,6,7-tetrahydro-4H-pyrrolo[2′,3′:4,5]thieno[2,3-d]pyrimidin-4-one]	> 250	7.96 ± 0.37	29.6 ± 1.66	–
CN1CCc2sc3nc(-c4ccc(Br)cc4)[nH]c(=O)c3c21 [3c, 2-(4-Bromophenyl)-5-methyl-3,5,6,7-tetrahydro-4H-pyrrolo[2′,3′:4,5]thieno[2,3-d]pyrimidin-4-one]	113 to 114	107 ± 4.94	10.5 ± 0.59	–
CN1CCc2sc3nc(-c4ccc(F)cc4)[nH]c(=O)c3c21 [3d, 2-(4-Fluorophenyl)-5-methyl-3,5,6,7-tetrahydro-4H-pyrrolo[2′,3′:4,5]thieno[2,3-d]pyrimidin-4-one]	108 to 110	13.4 ± 0.62	19 ± 1.06	–
Cc1ccc(-c2nc3sc4c(c3c(=O)[nH]2)N(C)CC4)cc1 [3e, 5-Methyl-2-(p-tolyl)-3,5,6,7-tetrahydro-4H-pyrrolo[2′,3′:4,5]thieno[2,3-d]pyrimidin-4-one]	155 to 156	22.4 ± 1.03	39.7 ± 2.22	–
COc1ccc(-c2nc3sc4c(c3c(=O)[nH]2)N(C)CC4)cc1 [3f, 2-(4-Methoxyphenyl)-5-methyl-3,5,6,7-tetrahydro-4H-pyrrolo[2′,3′:4,5]thieno[2,3-d]pyrimidin-4-one]	117 to 118	4.3 ± 0.2	7.47 ± 0.42	IC50 ([1]; MTT assay): 4.3 ± 0.2 µM; IC50 ([2]; MTT assay): 7.47 ± 0.42 µM
COc1cc(-c2nc3sc4c(c3c(=O)[nH]2)N(C)CC4)cc(OC)c1OC [3g, 5-Methyl-2-(3,4,5-trimethoxyphenyl)-3,5,6,7-tetrahydro-4H-pyrrolo[2′,3′:4,5]thieno[2,3-d]pyrimidin-4-one]	–	3.77 ± 0.17	20.5 ± 1.15	–
CCOC(=O)c1c(NC(=S)Nc2cc(C)ccc2Cl)sc2c1N(C)CC2 [4c, Ethyl 2-(3-(2-chloro-5-methylphenyl)thioureido)-4-methyl-5,6-dihydro-4H-thieno[3,2-b]pyrrole-3-carboxylate]	–	3.02	3.12 ± 0.17	IC50 [3]: 0.075 µM; Selectivity Index (SI) [4]: 12 and 11.68; IC50 [5]: 35.3 ± 1.92 µM; Increase in early apoptotic cells over untreated cells [6]: 7 fold; Increase in late apoptotic cells over untreated cells [6]: 97 fold; Apoptosis, Total (cells percentage) ([6]; at IC50): 29.81%; Apoptosis, Early (cells percentage) ([6]; at IC50, Q2 in Figure 6): 3.85%; Apoptosis, Late (cells percentage) ([6]; at IC50, Q3 in Figure 6): 16.55%; Necrosis (cells percentage) ([6]; at IC50, Q4 in Figure 6): 9.41%; AKT-1 phosphorylation inhibition rate [7]: 71.6%; Increase in active caspase-3 level over the untreated cells [8]: six-fold; IC50 ([1]; MTT assay): 3.02 ± 0.14 µM; IC50 [9]: 4.6 µM; VEGFR-2 phosphorylation inhibition [10]: 70%; % Content of DNA, G0:G1 [11]: 53.28%; % Content of DNA, G2:M [11]: 1.48%; % Content of DNA, PreG1 [11]: 29.81%; % Content of DNA, S [11]: 45.24%
COc1cccc2c1C(=O)c1c(O)c3c(c(O)c1C2=O)C[C@@](O)(C(=O)CO)C[C@@H]3O[C@H]1C[C@H](N)[C@H](O)[C@H](C)O1 [Doxorubicin, reference compound]	–	2.09 ± 0.1	2.53 ± 0.14	Selectivity Index (SI) [4]: 4.69; Selectivity Index (SI) ([4]; listed as doxorubicin): 5; IC50 [5]: 9.84 ± 0.54 µM; Increase in active caspase-3 level over the untreated cells [8]: seven-fold
CN(C)CCn1cc(-c2ccc(F)c(C(F)(F)F)c2)nc1C1CCN(c2ncnc3c2CC(=O)N3)CC1 [LY2780301, reference compound]	–	–	–	AKT-1 phosphorylation inhibition rate [7]: 68.6%; IC50 [9]: 4.62 µM

More lines, main results first:

melting point [°C]	SMILES	IC50 ([1]; Homo sapiens, HepG2, MTT assay) [µM]	IC50 ([2]; Homo sapiens, PC-3, MTT assay) [µM]	other results
132 to 134	CCOC(=O)c1c(NC(=S)NC)sc2c1N(C)CC2 [4a, Ethyl 4-methyl-2-(3-methylthioureido)-5,6-dihydro-4H-thieno[3,2-b]pyrrole-3-carboxylate]	41.1 ± 1.9	1.84 ± 0.1	–
135 to 136	CCNC(=S)Nc1sc2c(c1C(=O)OCC)N(C)CC2 [4b, Ethyl 2-(3-ethylthioureido)-4-methyl-5,6-dihydro-4H-thieno[3,2-b]pyrrole-3-carboxylate]	34.2 ± 1.58	19.3 ± 1.08	–
140 to 141	CCOC(=O)c1c(/N=C(/NC)SCC(=O)Nc2ccc(Cl)cc2)sc2c1N(C)CC2 [6a, Ethyl (Z)-2-((((2-((4-chlorophenyl)amino)-2-oxoethyl)thio)(methylamino)methylene)amino)-4-methyl-5,6-dihydro-4H-thieno[3,2-b]pyrrole-3-carboxylate]	9.8 ± 0.45	0.5 ± 0.03	–
82 to 83	CCOC(=O)c1c(/N=C(/Nc2cc(C)ccc2Cl)SCC(=O)Nc2ccc(Cl)cc2)sc2c1N(C)CC2 [7a, Ethyl (Z)-2-((((2-chloro-5-methylphenyl)amino)((2-((4-chlorophenyl)amino)-2-oxoethyl)thio)methylene)amino)-4-methyl-5,6-dihydro-4H-thieno[3,2-b]pyrrole-3-carboxylate]	27.3 ± 1.26	81.1 ± 4.54	–
> 250	CCOC(=O)c1c(/N=C(/Nc2cc(C)ccc2Cl)SCC(=O)Nc2ccc(Br)cc2)sc2c1N(C)CC2 [7b, Ethyl (Z)-2-((((2-((4-bromophenyl)amino)-2-oxoethyl)thio)((2-chloro-5-methylphenyl)amino)methylene)amino)-4-methyl-5,6-dihydro-4H-thieno[3,2-b]pyrrole-3-carboxylate]	2.48 ± 0.11	26.6 ± 1.49	–
110 to 112	CCOC(=O)c1c(/N=C(/Nc2cc(C)ccc2Cl)SCC(=O)Nc2ccc(OC)cc2)sc2c1N(C)CC2 [7c, Ethyl (Z)-2-((((2-chloro-5-methylphenyl)amino)((2-((4-methoxyphenyl)amino)-2-oxoethyl)thio)methylene)amino)-4-methyl-5,6-dihydro-4H-thieno[3,2-b]pyrrole-3-carboxylate]	39.6 ± 1.83	9.72 ± 0.54	–
118 to 120	CCOC(=O)c1c(/N=C(/Nc2cc(C)ccc2Cl)SCC(=O)Nc2ccc(C)cc2)sc2c1N(C)CC2 [7d, Ethyl (Z)-2-((((2-chloro-5-methylphenyl)amino)((2-oxo-2-(p-tolylamino)ethyl)thio)methylene)amino)-4-methyl-5,6-dihydro-4H-thieno[3,2-b]pyrrole-3-carboxylate]	8.91 ± 0.41	6.35 ± 0.36	–

— publication PMC9229165, “In Vitro Anticancer Activity Screening of Novel Fused Thiophene Derivatives as VEGFR-2/AKT Dual Inhibitors and Apoptosis Inducers” (Pharmaceuticals, 2022)
